{"source": "ChEMBL document CHEMBL1201862", "about": "“PubChem BioAssay data set” (2004)", "test_in_all_cases": "NCI tumour cell line growth inhibition, 48 h", "key": {"786-0": {"system": "786-0"}, "A498": {"system": "A498"}, "A549": {"system": "A549"}, "ACHN": {"system": "ACHN"}, "BT-549": {"system": "BT-549"}, "CAKI-1": {"system": "CAKI-1"}, "CCRF-CEM": {"system": "CCRF-CEM"}, "COLO 205": {"system": "COLO 205"}, "DU-145": {"system": "DU-145"}, "EKVX": {"system": "EKVX"}, "HCC 2998": {"system": "HCC 2998"}, "HCT-116": {"system": "HCT-116"}, "HCT-15": {"system": "HCT-15"}, "HL-60": {"system": "HL-60"}, "HOP-62": {"system": "HOP-62"}, "HOP-92": {"system": "HOP-92"}, "HT-29": {"system": "HT-29"}, "Hs-578T": {"system": "Hs-578T"}, "IGROV-1": {"system": "IGROV-1"}, "K562": {"system": "K562"}, "KM12": {"system": "KM12"}, "LOX IMVI": {"system": "LOX IMVI"}, "M14": {"system": "M14"}, "MCF7": {"system": "MCF7"}, "MDA-MB-231": {"system": "MDA-MB-231"}, "MDA-MB-435": {"system": "MDA-MB-435"}, "MDA-N": {"system": "MDA-N"}, "MOLT-4": {"system": "MOLT-4"}, "NCI-H23": {"system": "NCI-H23"}, "NCI-H460": {"system": "NCI-H460"}, "NCI-H522": {"system": "NCI-H522"}, "NCI/ADR-RES": {"system": "NCI/ADR-RES"}, "OVCAR-3": {"system": "OVCAR-3"}, "OVCAR-4": {"system": "OVCAR-4"}, "OVCAR-5": {"system": "OVCAR-5"}, "OVCAR-8": {"system": "OVCAR-8"}, "PC-3": {"system": "PC-3"}, "RXF 393": {"system": "RXF 393"}, "SF-268": {"system": "SF-268"}, "SF-295": {"system": "SF-295"}, "SF-539": {"system": "SF-539"}, "SK-MEL-28": {"system": "SK-MEL-28"}, "SK-MEL-2": {"system": "SK-MEL-2"}, "SK-MEL-5": {"system": "SK-MEL-5"}, "SN12C": {"system": "SN12C"}, "SNB-19": {"system": "SNB-19"}, "SR": {"system": "SR"}, "SW-620": {"system": "SW-620"}, "T47D": {"system": "T47D"}, "TK-10": {"system": "TK-10"}, "U-251": {"system": "U-251"}, "UACC-257": {"system": "UACC-257"}, "UACC-62": {"system": "UACC-62"}, "UO-31": {"system": "UO-31"}}, "note": "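Growth conditions: 96-well plates. Treatment: test compound, 48 hours, 5 concentrations. Analysis: linear interpolation between bracketing concentrations; unreached endpoints set to highest concentration. At the GI50, growth is halved.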 The source made the active and inactive calls. No stated cut-off is given here; in the data, active = GI50 up to about 1.1 µM and inactive = higher.", "data": [{"smiles": "Cc1ccc2c3c(cnc2n1)C(=O)OCCN3C", "values": [{"measurement": "GI50", "setting": "786-0", "value": "> 100 µM (inactive)"}, {"measurement": "GI50", "setting": "A498", "value": "> 100 µM (inactive)"}, {"measurement": "GI50", "setting": "A549", "value": "> 100 µM (inactive)"}, {"measurement": "GI50", "setting": "ACHN", "value": "> 100 µM (inactive)"}, {"measurement": "GI50", "setting": "BT-549", "value": "> 100 µM (inactive)"}, {"measurement": "GI50", "setting": "CAKI-1", "value": "> 100 µM (inactive)"}, {"measurement": "GI50", "setting": "CCRF-CEM", "value": "> 100 µM (inactive)"}, {"measurement": "GI50", "setting": "COLO 205", "value": "> 100 µM (inactive)"}, {"measurement": "GI50", "setting": "DU-145", "value": "> 100 µM (inactive)"}, {"measurement": "GI50", "setting": "EKVX", "value": "> 100 µM (inactive)"}, {"measurement": "GI50", "setting": "HCC 2998", "value": "> 100 µM (inactive)"}, {"measurement": "GI50", "setting": "HCT-116", "value": "> 100 µM (inactive)"}, {"measurement": "GI50", "setting": "HCT-15", "value": "> 100", "unit": "µM"}, {"measurement": "GI50", "setting": "HL-60", "value": "> 100 µM (inactive)"}, {"measurement": "GI50", "setting": "HOP-62", "value": "> 100 µM (inactive)"}, {"measurement": "GI50", "setting": "HOP-92", "value": "> 100 µM (inactive)"}, {"measurement": "GI50", "setting": "HT-29", "value": "> 100 µM (inactive)"}, {"measurement": "GI50", "setting": "Hs-578T", "value": "> 100 µM (inactive)"}, {"measurement": "GI50", "setting": "IGROV-1", "value": "> 100 µM (inactive)"}, {"measurement": "GI50", "setting": "K562", "value": "> 100 µM (inactive)"}, {"measurement": "GI50", "setting": "KM12", "value": "> 100 µM (inactive)"}, {"measurement": "GI50", "setting": "LOX IMVI", "value": "> 100 µM (inactive)"}, {"measurement": "GI50", "setting": "M14", "value": "> 100 µM (inactive)"}, {"measurement": "GI50", "setting": "MCF7", "value": "> 100 µM (inactive)"}, {"measurement": "GI50", "setting": "MDA-MB-231", "value": "> 100 µM (inactive)"}, {"measurement": "GI50", "setting": "MDA-MB-435", "value": "> 100 µM (inactive)"}, {"measurement": "GI50", "setting": "MDA-N", "value": "> 100 µM (inactive)"}, {"measurement": "GI50", "setting": "MOLT-4", "value": "> 100 µM (inactive)"}, {"measurement": "GI50", "setting": "NCI-H23", "value": "> 100 µM (inactive)"}, {"measurement": "GI50", "setting": "NCI-H460", "value": "> 100 µM (inactive)"}, {"measurement": "GI50", "setting": "NCI-H522", "value": "> 100 µM (inactive)"}, {"measurement": "GI50", "setting": "NCI/ADR-RES", "value": "> 100 µM (inactive)"}, {"measurement": "GI50", "setting": "OVCAR-3", "value": "> 100 µM (inactive)"}, {"measurement": "GI50", "setting": "OVCAR-4", "value": "> 100 µM (inactive)"}, {"measurement": "GI50", "setting": "OVCAR-5", "value": "> 100 µM (inactive)"}, {"measurement": "GI50", "setting": "OVCAR-8", "value": "> 100 µM (inactive)"}, {"measurement": "GI50", "setting": "PC-3", "value": "> 100 µM (inactive)"}, {"measurement": "GI50", "setting": "RXF 393", "value": "> 100 µM (inactive)"}, {"measurement": "GI50", "setting": "SF-268", "value": "> 100 µM (inactive)"}, {"measurement": "GI50", "setting": "SF-295", "value": "> 100 µM (inactive)"}, {"measurement": "GI50", "setting": "SF-539", "value": "> 100 µM (inactive)"}, {"measurement": "GI50", "setting": "SK-MEL-28", "value": "> 100 µM (inactive)"}, {"measurement": "GI50", "setting": "SK-MEL-2", "value": "> 100 µM (inactive)"}, {"measurement": "GI50", "setting": "SK-MEL-5", "value": "> 100 µM (inactive)"}, {"measurement": "GI50", "setting": "SN12C", "value": "> 100 µM (inactive)"}, {"measurement": "GI50", "setting": "SNB-19", "value": "> 100 µM (inactive)"}, {"measurement": "GI50", "setting": "SR", "value": "> 100 µM (inactive)"}, {"measurement": "GI50", "setting": "SW-620", "value": "> 100 µM (inactive)"}, {"measurement": "GI50", "setting": "T47D", "value": "> 100 µM (inactive)"}, {"measurement": "GI50", "setting": "TK-10", "value": "> 100 µM (inactive)"}, {"measurement": "GI50", "setting": "U-251", "value": "> 100 µM (inactive)"}, {"measurement": "GI50", "setting": "UACC-257", "value": "> 100 µM (inactive)"}, {"measurement": "GI50", "setting": "UACC-62", "value": "> 100 µM (inactive)"}, {"measurement": "GI50", "setting": "UO-31", "value": "> 100 µM (inactive)"}]}]}
